Data on one compound can be found in patent publication US12595449B2, “Integrated system for 3D tissue culture” (Valo Health, Inc., priority 2020, dated 2026).

The subject of this test is human engineered cardiac tissues (human iPSC derived cardiomyocytes co-cultured with human cardiac fibroblasts). The experiment in a line: Drug testing with electrical stimulation of engineered cardiac tissues in the Biowire II 96-well plate (contractile dynamics from polymer wire displacement). It is filed as cell-based. The settings on record: thapsigargin 50×10^−6 m, n=2; for frequency of tissue beating: constant stimulation frequency 1.5 Hz, day 19, video after 15 min; for tissue contraction and relaxation time: electrical pacing 1.5 Hz, day 19 (after 12 days of electrical stimulation), video after 15 min. The procedure:
To generate cardiac tissues, human iPSC derived cardiomyocytes co-cultured with human cardiac fibroblasts were seeded with hydrogel in the 96-well plate device. Tissue compaction in the first seven days was observed (FIG. 7A, FIG. 7B), with dramatic change in the first two days followed by stabilization after day 3. Electrical field stimulation of cardiac tissues was initiated at day 7 and continued for the additional 12 days. […] Thapsigargin (50×10^-6 m), an inhibitor of sarcoplasmic reticulum function in cardiomyocytes, was added in the presence of electrical pacing (1.5 Hz), resulting in a prolonged tissue contraction and relaxation time (FIG. 7H). […] Predominantly ventricular cardiomyocytes (CMs) were derived from the hiPSC line BJ1D, using monolayer differentiation protocols as previously described. At day 21 of differentiation, cardiomyocytes were disassociated into single cells with previously established methods. Briefly, 1 mg mL^-1 of collagenase type II (Worthington, LS004205) in Hank's Balanced Salt Solution was added to the monolayer cardiomyocyte cultures and incubated overnight at room temperature. The disassociated cells were mixed with cardiac fibroblasts (Lonza, NHCF-V) in a 10:1 cell number ratio. The mixed cells were pelleted and remixed in collagen hydrogel at 5.5×10^7 cells mL^-1. The cell-gel mixture was seeded at […] per microwell. A droplet of media was placed on the wall of the well to keep the moisture until gelation was complete. The plate was incubated at 37° C. and 5% CO2 for 10 min followed by media addition. After seeding (day 0), the tissues were cultured for seven days to allow remodeling around the POMaC wires. Bright field images of the tissues were taken daily to monitor tissue morphology. By day 7, the tissues synchronously contracted and deflected the POMaC wire with each contraction. SpectraMax […] 300 Imaging Cytometer was used to image tissues in the well plate to monitor the daily morphology changes of tissues. Nine pictures were taken in each well of the 96-well plate and automatically stitched together to show the entire view of the well. […] Average tissue width and width of the tissue (Tw), attachment site to the polymer sensor were measured using bright field images at the relaxed state. Passive displacement of polymer sensors was assessed in blue channel. […] The final readouts for the total and passive forces were interpolated according to the Tw and custom tip sizes. […] With built-in force sensor and electrodes, tissues were able to be assessed in situ in terms of their contractile dynamics and drug responses. […] The videos were analyzed using the custom MATLAB software. […]

For the compound `C/C=C(/C)C(=O)O[C@H]1C(C)=C2[C@H]([C@@H]1OC(=O)CCCCCCC)[C@@](C)(OC(C)=O)C[C@H](OC(=O)CCC)[C@@]1(O)[C@H]2OC(=O)[C@@]1(C)O` [Thapsigargin], the “frequency of tissue beating” value was “decreased by half”; the “tissue contraction and relaxation time” value was “prolonged”. Moreover, for the setting “listed as thapsigargin”, the “frequency of tissue beating” value was “reduced by half”; the “tissue contraction and relaxation time” value is “slowed”.
